Where a name gives a salt, the structure may show the parent alone.
system: STAT6; test: Inhibitory test on STAT6 activation: IL-4-induced alkali phosphatase STAT6 reporter in 293 cells stably expressing the STAT6 gene and STAT6 reporter gene; format: cell-based; details: HEK293; Table 1; 1 ng/ml human recombinant IL-4, 16 hours, 293 cells with STAT6 reporter; read-out: Inhibitory activity IC50 (concentration at which the alkali phosphatase activity induced by IL-4 was inhibited by 50%)
Protocol: The inhibitory action of the present compound on activation of STAT6 was evaluated according to the following experiments.
1) Construction of a STAT6 Reporter Gene
An oligonucleotide of SEQ ID NO:1 in which three STAT6-binding regions on a human immunoglobulin germline E gene promoter had been linked was mixed with its complementary chain, thermally denatured and annealed, and 5′- and 3′-ends thereof were cleaved with restriction enzymes Kpn I (Code No. 1068A, Takara Shuzo) and Xba I (Code No. 1093A, Takara Shuzo) respectively, and the resulting fragment was cloned into a Kpn I/Xba I site of pUG-BGH-PLAP vector (described in Molecular Pharmacology, 49:860–873, 1996). To induce a basic transcriptional factor, a TK promoter region of herpes virus was cloned into an Xba I/Hind III (Code No. 1060A, Takara Shuzo) site of the pUG-BGH-PLAP vector. To obtain a stably expressing cell strain, a neomycin resistance gene (PGK-neo expression cassette) was integrated with an Sal I (Code No. 1080A, Takara Shuzo) of this vector. Cloning of the TK promoter and PGK-neo expression cassette was carried out according to Molecular Pharmacology, 49:860–873, 1996.
The underlined sites are a Kpn I recognition site and Xba I recognition site respectively. 2) Construction of an STAT6 Expression Vector
An oligonucleotide of SEQ ID NO:2 containing an initiation codon of STAT6 gene and an oligonucleotide of SEQ ID NO:3 containing a stop codon were used, and total RNA was prepared from human peripheral blood cells by using RNeasy Mini kit (Code No. 74104, OIAGEN). Then, cDNA was prepared by reverse transcription reaction using Takara RNA LA PCR kit (Code No. RR012A, Takara Shuzo) and then subjected to PCR reaction with primers of SEQ ID NOS:2 and 3, to amplify the STAT6 gene. • (SEQ ID NO:2) 5′-[…]-3′ The underlined site is an EcoR I recognition site. • (SEQ ID NO:3) 5′-[…]-3′ The underlined site is an Xho I recognition site.
The PCR product was digested with EcoR I (Code No. 1040A, Takara Shuzo) and Xho I (1094A, Takara Shuzo), and the digested fragment was isolated on an agarose gel. The isolated fragment was integrated into a vector fragment obtained by digesting pcDNA3.1 (+) (Code No. U790-20, Invitrogen) vector with EcoRI/Xho I.
3) Introduction of the Gene and Preparation of a Stably Expressing Cell Strain
Human fetal kidney-derived 293 cells (American Type Culture Collection), 3.0×10^5 cells, were spread on a Falcon tissue culture 6-well plate (Code No. 35-3046, Becton Dickinson) and cultured overnight. 1.5 μg of the prepared STAT6 reporter gene, 1.5 μg of the STAT6 gene and 20 μl of lipofectamine (Code No. 18324-012, GIBCO BRL) were mixed in 0.3 ml OPTI-MEM medium (Code No. 31985-070) and left at room temperature for 20 minutes. Thereafter, 1.2 ml OPTI-MEM medium was further added to the cells washed with OPTI-MEM medium not containing fetal bovine serum, and the cells were cultured for 2 hours. 1.5 ml medium containing fetal bovine serum was added thereto, and the cells were cultured for additional 19 hours. The medium was exchanged with a fresh one, and Geneticin (Code No. G-5013, SIGMA) was added at a concentration of 1 mg/ml, and the cells were cultured, and chemical-resistant cells were selected. The resulting chemical-resistant cells were floated in a medium containing 1 mg/ml Geneticin, then spread at a density of 0.5 cell/well on a 96-well microplate (Code No. 35-3072, Becton Dickinson) and cloned to give a clone expressing alkali phosphatase in response to IL-4.
4) Inhibitory Test on STAT6 Activation
The cells stably expressing the STAT6 gene and STAT6 reporter gene and expressing alkali phosphatase in response to IL-4 were spread at a density of 5000 cells/180 μl/well on a 96-well microplate (Code No. 35-3072, Becton Dickinson) and cultured overnight. […]

| Structure (SMILES) | IC50 |
| --- | --- |
| Cc1n[nH]cc1-c1ccc2ncc(-c3ccc(C(=O)NN4CCCCC4)c(F)c3)n2c1 [Example 644, N1-Piperidino-2-fluoro-4-[6-(3-methyl-1H-4-pyrazolyl)-imidazo[1,2-a]pyridin-3-yl] benzamide dihydrochloride] | < 0.01 µM |
| Cc1n[nH]cc1-c1ccc2nccc(N3CCC(Oc4ccc(S(C)(=O)=O)cc4)CC3)c2c1 [Example 239, 6-(3-Methyl-1H-4-pyrazolyl)-4-{4-[4-(methylsulfonyl)-phenoxy]piperidino}quinoline dihydrochloride] | < 0.01 µM |
| Cc1n[nH]cc1-c1ccc2ncc(-c3ccc(S(=O)(=O)N(C)c4ccc(Cl)cc4)cc3)n2c1 [Example 632, N1-(4-Chlorophenyl)-N1-methyl-4-[6-(3-methyl-1H-4-pyrazolyl)imidazo[1,2-a]pyridin-3-yl]-1-benzene sulfonamide] | 0.01 to 0.1 µM |
| COC1CCN(c2ccnc3ccc(-c4c[nH]nc4C)cc23)CC1 [Example 230, 4-(4-Methoxypiperidino)-6-(3-methyl-1H-4-pyrazolyl)quinoline dihydrochloride] | < 0.01 µM |
| C=Cc1ccc(NC(=O)c2ccc(-c3cnc4ccc(-c5cn[nH]c5)cn34)cc2F)nc1 [Example 689, N1-(5-Vinyl-2-pyridyl)-2-fluoro-4-[6-(1H-4-pyrazolyl)-imidazo[1,2-a]pyridin-3-yl]benzamide dihydrochloride] | < 0.01 µM |
| Cc1n[nH]cc1-c1ccc2nccc(N3CCN(C(=O)N(C)CCN(C)C)CC3)c2c1 [Example 227, N-[2-(Dimethylamino)ethyl]-N-methyl-4-[6-(3-methyl-1H-4-pyrazolyl)-4-quinolyl]-1-piperazine carboxamide dihydrochloride] | 0.01 to 0.1 µM |
| O=C(NC1(c2ccc(F)cc2)CC1)c1ccc(-c2cnc3ccc(-c4cn[nH]c4)cn23)cc1F [Example 663, N1-[1-(4-Fluorophenyl)cyclopropyl]-2-fluoro-4-[6-(1H-4-pyrazolyl)imidazo[1,2-a]pyridin-3-yl]benzamide hydrochloride] | < 0.01 µM |
| Cc1n[nH]cc1-c1ccc2ncc(-c3ccc(CN4CCC[C@H]4C(N)=O)s3)n2c1 [Example 120, (2S)-1-({5-[6-(3-Methyl-1H-4-pyrazolyl)imidazo[1,2-a]-pyridin-3-yl]-2-thienyl}methyl)tetrahydro-1H-2-pyrrole carboxyamide trihydrochloride] | < 0.01 µM |
| N#CCCCS(=O)(=O)c1ccc(-c2cnc3ccc(-c4c[nH]nc4-c4ccc(F)cc4)cn23)s1 [Example 626, 4-[(5-{6-[3-(4-Fluorophenyl)-1H-4-pyrazolyl]imidazo[1,2-a]pyridin-3-yl}-2-thienyl)sulfonyl]butane nitrile hydrochloride] | < 0.01 µM |
| N#Cc1ccc(-c2n[nH]cc2-c2ccc3ncn(-c4ccc(C#N)cn4)c3c2)cc1 [Example 148, 6-{6-[3-(4-Cyanophenyl)-1H-4-pyrazolyl]-1H-benzo[d]-imidazol-1-yl}nicotinonitrile trihydrochloride] | < 0.01 µM |

same assay, conditions: HEK293; Table 2; 1 ng/ml human recombinant IL-4, 16 hours, 293 cells with STAT6 reporter; read-out: Inhibitory activity IC50 (concentration at which the alkali phosphatase activity induced by IL-4 was inhibited by 50%)

| Structure (SMILES) | IC50 |
| --- | --- |
| CS(=O)(=O)c1cnc(-c2ncnc3ccc(-c4c[nH]nc4-c4c(F)cccc4F)cc23)s1 [Example 899, 6-[3-(2,6-Difluorophenyl)-1H-pyrazol-4-yl]-4-(5-methylsulfonylthiazol-2-yl) quinazoline] | < 0.01 µM |
| COc1ccc(-c2ccc(-c3n[nH]cc3-c3ccc4ncnc(-c5ccc(S(C)(=O)=O)s5)c4c3)cc2)cn1 [Example 889, 6-{3-[4-(6-Methoxypyridin-3-yl)phenyl]-1H-pyrazol-4-yl}-4-(5-methylsulfonylthiophen-2-yl) quinazoline] | 0.01 to 0.1 µM |
| N#Cc1cc(N2CCN(c3ncnc4ccc(-c5cn[nH]c5)cc34)CC2)ccc1F [Example 1007, 2-Fluoro-5-{4-[6-(1H-4-pyrazolyl)-4-quinazolinyl]piperazin-1-yl}benzonitrile hydrochloride] | 0.01 to 0.1 µM |
| CS(=O)(=O)c1ccc(OC2CCN(c3ccnc4ccc(-c5cn[nH]c5)cc34)CC2)c(F)c1 [Example 1032, 4-[4-(2-Fluoro-4-methylsulfonylphenoxy)-piperidin-1-yl]-6-(1H-pyrazol-4-yl)quinoline trihydrochloride] | 0.01 to 0.1 µM |
| CS(=O)(=O)c1ccc(-c2ncnc3ccc(-c4c[nH]nc4-c4ccc(OC(F)(F)F)cc4)cc23)s1 [Example 892, 4-(5-Methylsulfonylthiophen-2-yl)-6-[3-(4-trifluoromethoxyphenyl)-1H-pyrazol-4-yl] quinazoline] | 0.01 to 0.1 µM |
| O=C(Nc1nccs1)c1ccc(-c2ncnc3ccc(-c4cn[nH]c4)cc23)cc1F [Example 872, 2-Fluoro-N-thiazol-2-yl-4-[6-(1H-pyrazol-4-yl)quinazolin-4-yl]benzamide trihydrochloride] | 0.01 to 0.1 µM |
| O=C(NCc1cccc(OC(F)F)c1)c1ccc(-c2cnc3ccc(-c4cn[nH]c4)cn23)cc1F [Example 706, N1-[3-(Difluoromethoxy)benzyl]-2-fluoro-4-[6-(1H-4-pyrazolyl)imidazo[1,2-a]pyridin-3-yl]benzamide hydrochloride] | < 0.01 µM |
| CS(=O)(=O)c1cnc(-c2ncnc3ccc(-c4c[nH]nc4-c4ccc(F)cc4)cc23)s1 [Example 897, 6-[3-(4-Fluorophenyl)-1H-pyrazol-4-yl]-4-(5-methylsulfonylthiazol-2-yl) quinazoline] | < 0.01 µM |
| CNS(=O)(=O)c1cccc(N2CCN(c3ncnc4ccc(-c5cn[nH]c5)cc34)CC2)c1 [Example 952, N-Methyl-3-{4-[6-(1H-pyrazol-4-yl)quinazolin-4-yl]piperazin-1-yl}benzene sulfonamide tri-trifluoroacetate] | < 0.01 µM |
| CS(=O)(=O)c1cccc(N2CCN(c3ncnc4ccc(-c5c[nH]nc5-c5ccc(C#N)s5)cc34)CC2)c1 [Example 967, 5-(4-{4-[4-(3-Methylsulfonylphenyl)piperazin-1-yl]quinazolin-6-yl}-1H-pyrazol-3-yl)thiophen-2-carbonitrile tri-trifluoroacetate] | < 0.01 µM |
| NS(=O)(=O)c1ccc(NC(=O)c2ccc(-c3cnc4ccc(-c5cn[nH]c5)cn34)cc2F)cc1 [Example 700, N1-[4-(Aminosulfonyl)phenyl]-2-fluoro-4-[6-(1H-4-pyrazolyl)imidazo[1,2-a]pyridin-3-yl]benzamide hydrochloride] | 0.01 to 0.1 µM |
| Cc1ccc(-c2n[nH]cc2-c2ccc3ncnc(-c4ccc(S(C)(=O)=O)s4)c3c2)cc1 [Example 890, 4-(5-Methylsulfonylthiophen-2-yl)-6-(3-p-tolyl-1H-pyrazol-4-yl) quinazoline] | < 0.01 µM |
| Cc1ccc(S(=O)(=O)N2CCN(c3ncnc4ccc(-c5cn[nH]c5)cc34)CC2)cc1 [Example 971, 4-[4-(Toluene-4-sulfonyl)piperazin-1-yl]-6-(1H-pyrazol-4-yl)quinazoline di-trifluoroacetate] | 0.1 to 1 µM |
| Cn1cc(-c2ncnc3ccc(-c4c[nH]nc4-c4c(F)cccc4F)cc23)cn1 [Example 910, 6-[3-(2,6-Difluorophenyl)-1H-pyrazol-4-yl]-4-(1-methyl-1H-pyrazol-4-yl) quinazoline] | < 0.01 µM |
| CS(=O)(=O)c1ccc(-c2ncnc3ccc(-c4c[nH]nc4CN4CCOCC4)cc23)s1 [Example 904, 4-(5-Methylsulfonylthiophen-2-yl)-6-(3-morpholin-4-ylmethyl-1H-pyrazol-4-yl) quinazoline] | 0.1 to 1 µM |

From patent US7074801B1, “Nitrogen-containing condensed cyclic compound having a pyrazolyl group as a substituent group and pharmaceutical composition thereof” (Eisai Co., Ltd., priority 2001, dated 2006)
